Assay results taken from publication doi:10.1101/2024.12.09.627564, “Cannabinoid inhibition of mechanosensitive K^+ channels” (bioRxiv, 2024).
Numbering of substitutions follows the chain as printed. Read-outs that look alike come from different tables or passages of the source.

Columns and labels:
Homo sapiens TRAAK = target: T1, Homo sapiens TRAAK (Homo sapiens, UniProt Q9NYG8); test: Excised inside-out patch recording of TRAAK from Xenopus oocytes; assay type: biochemical; settings: for inhibition at 1 µM: 1 μM CBD, read-out: percent inhibition
T1 construct: The transcribed messages encode H. sapiens TRAAK amino acids 1–393; expressed in transfected cells; host or cells: Xenopus laevis oocytes, cRNA injection
T1 sequence (Q9NYG8 1-393): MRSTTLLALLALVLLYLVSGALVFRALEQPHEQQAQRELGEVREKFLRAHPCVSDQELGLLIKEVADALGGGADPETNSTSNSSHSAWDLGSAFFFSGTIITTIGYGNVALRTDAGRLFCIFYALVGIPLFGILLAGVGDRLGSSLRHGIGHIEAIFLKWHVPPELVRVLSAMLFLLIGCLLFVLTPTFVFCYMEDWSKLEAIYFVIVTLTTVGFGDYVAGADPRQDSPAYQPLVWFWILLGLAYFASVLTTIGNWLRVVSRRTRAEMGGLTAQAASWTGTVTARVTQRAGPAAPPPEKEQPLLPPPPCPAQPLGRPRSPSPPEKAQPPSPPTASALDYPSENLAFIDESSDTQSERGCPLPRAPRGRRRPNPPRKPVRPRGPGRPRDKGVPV
Excerpt: (§1) For patch clamp recording from Xenopus oocytes, genes encoding full-length Homo sapiens TRAAK (UniProt Q9NYG8–2), TREK-1 (UniProt O95069), and TREK-2 (UniProt P57789) were codon optimized for eukaryotic expression, synthesized (Genewiz), and cloned into a modified pGEMHE vector using Xho1 and EcoR1 restriction sites. The transcribed messages encode H. sapiens TRAAK amino acids 1–393, TREK-1 amino acids 1–426, or TREK-2 amino acids 1–538 with an additional three amino acids (SNS) at the C terminus. TRAAK mutants were introduced by polymerase chain reaction (PCR). Linearized DNA was transcribed in vitro using T7 polymerase. Complementary RNA (0.1 to 10 ng for TRAAK, TREK-1, TREK-2, and mutants) in 50 nL H2O was injected into Xenopus laevis oocytes extracted from anesthetized frogs. Currents were recorded at 25 °C from inside-out patches excised from oocytes 1 to 5 d after RNA injection. The pipette solution contained 15 mM KCl, 135 mM NaCl, 2 mM MgCl2, and 10 mM HEPES (pH = 7.4 with KOH) and the bath solution contained 150 mM KCl and 10 mM HEPES (pH = 7.1 with KOH). Borosilicate glass pipettes were pulled to 2–5 MΩ resistance.
Patches were evaluated with voltage-step protocols to confirm TRAAK expression and minimal non-specific leak based on reversal potential. Currents were recorded using an Axopatch 200B amplifier (Molecular Devices) at a bandwidth of 1 kHz and digitized with an Digidata 1550B (Molecular Devices) at 100–500 kHz using pClamp10.7 software. Pressure was applied with a second-generation high-speed pressure clamp device (HSPC-2-SB, ALA Scientific Instruments). Aggregated data were from patches from n ≥ 2 different cells on different days. No relevant differences were observed between patches from different cells. In an effort to minimize variability associated with differences in resting membrane tension, we targeted patches with low basal curvature and low resting channel activity and ensured measured pressure difference across the patch was as close to zero as possible at rest to prevent mechanical activation of channels. Data were analyzed using Clampfit 10.7, Excel, and Graphpad Prism software. For voltage families, the data were decimated 100x and plotted in Prism. Statistical analysis was conducted with Dunnett’s multiple comparisons test after an ordinary one-way ANOVA using Prism software.
To avoid cannabinoid absorption to plastic, cannabinoid solutions were made in glass vials and diluted by weight, perfusion was performed using glass tubing pulled from borosilicate glass Pasteur pipettes (Fisherbrand, Cat# 13–678-20C), and recordings were performed in glass chambers. Channel activity was continuously recorded during perfusion steps. Patches were exposed to each cannabinoid concentration until a stable current level was reached (0.5–2 minutes). CBD (Cayman Chemical cat#90080) was prepared as a 10mM stock solution in DMSO, CBN (Cayman Chemical cat#25495) was prepared as a 80mM stock solution in DMSO, CBDV (Phytolab Cat#85955) was prepared as a 10mM stock solution in DMSO, and CBDP (Cayman Chemical cat#33611) was purchased as a 2.9 mM stock solution in methanol. Cannabinoids were serially diluted in bath solution to achieve working concentrations of 50 μM to 10 nM. Bath volume in the recording chamber was minimized by suction and drug-containing solutions were delivered three times to ensure establishment of desired concentration in the recording chamber. Cannabinoids were applied from low to high concentration. The recording chamber and perfusion system were washed extensively with methanol after every trial.
The effects of cannabinoids on channel activity were quantified by the reduction in channel current evoked at 0 mV during a gap-free recording or during 200 ms long voltage families with steps ranging from −100 to +100 mV. Currents were normalized to those prior to cannabinoid application to facilitate comparisons across different patches and cells. […]

TRAAKA198E = target: T2, TRAAKA198E (Homo sapiens, UniProt Q9NYG8, A172E); test: Excised patch recording of TRAAK mutant A198E; assay type: biochemical
T2 construct: The transcribed messages encode H. sapiens TRAAK amino acids 1–393; expressed in transfected cells; host or cells: Xenopus laevis oocytes, cRNA injection
T2 sequence (Q9NYG8 1-393 A172E): T1 sequence (Q9NYG8 1-393) with A172E
Excerpt: as §1, with “The pipette solution contained 15 mM KCl, 135 mM NaCl, 2 mM MgCl2, and 10 mM HEPES (pH = 7.4 with KOH) and the bath solution contained 150 mM KCl and 10 mM HEPES (pH = 7.1 with KOH). Borosilicate glass pipettes were pulled to 2–5 MΩ resistance.” left out
Patches were evaluated with voltage-step protocols to confirm TRAAK expression and minimal non-specific leak based on reversal potential. Currents were recorded using an Axopatch 200B amplifier (Molecular Devices) at a bandwidth of 1 kHz and digitized with an Digidata 1550B (Molecular Devices) at 100–500 kHz using pClamp10.7 software. […] In an effort to minimize variability associated with differences in resting membrane tension, we targeted patches with low basal curvature and low resting channel activity and ensured measured pressure difference across the patch was as close to zero as possible at rest to prevent mechanical activation of channels. Data were analyzed using Clampfit 10.7, Excel, and Graphpad Prism software. […]
To avoid cannabinoid absorption to plastic, cannabinoid solutions were made in glass vials and diluted by weight, perfusion was performed using glass tubing pulled from borosilicate glass Pasteur pipettes (Fisherbrand, Cat# 13–678-20C), and recordings were performed in glass chambers. Channel activity was continuously recorded during perfusion steps. […]

TRPV1–4 = tested on: TRPV1–4; parameters: method as in PMID 30697147, PMID 31566564; settings: activation; cited from earlier work
TRPA1 = tested on: TRPA1; parameters: method as in PMID 30697147, PMID 31566564; settings: activation; cited from earlier work
Kv7.2/7.3 = tested on: Kv7.2/7.3; parameters: method as in PMID 35179483, PMID 37857637; settings: activation; cited from earlier work
BK = tested on: BK; parameters: method as in PMID 38708937; settings: inhibition; cited from earlier work

What does the source list for `C=C(C)[C@@H]1CCC(C)=C[C@H]1c1c(O)cc(CCCCC)cc1O` [CBD, Cannabidiol]?
IC50 (Homo sapiens TRAAK): ~0.145 µM; inhibition at 1 µM (Homo sapiens TRAAK; after mβCD treatment (high membrane tension)): 43 ± 13%; inhibition at 1 µM (Homo sapiens TRAAK; prior to mβCD treatment): 91 ± 3%; effect on mechanical activation of TRAAK by negative pressure steps (Homo sapiens TRAAK; 0.5, 1 and 10 μM CBD): more negative pressure was required to activate TRAAK to the same degree; Hill-coefficient (Homo sapiens TRAAK; TRAAK dose-response): 1.3; fold higher affinity than RU-TRAAK-1 and −2 (Homo sapiens TRAAK; TRAAK inhibitors): 3–5 fold; concentration at which effects are evident (Homo sapiens TRAAK; TRAAK, excised patches): 1 to 10 nM; concentration of full inhibition (Homo sapiens TRAAK; TRAAK, excised patches): ~ 1 μM; fold higher concentration required for similar inhibition after mβCD treatment (Homo sapiens TRAAK; after vs prior to mβCD treatment): Approximately 10 fold; fold higher affinity than ruthenium red and TKDC (Homo sapiens TRAAK; nonspecific TRAAK inhibitors): greater than 10 fold; IC50 (TRAAKA198E): 0.496 ± 0.026 µM; inhibition of channel activity at high concentration (TRAAKA198E; 10 μM CBD): fully inhibited; fold less sensitive than wild-type TRAAK (TRAAKA198E; A198E vs wild-type): ~ 4 fold; EC50 (TRPV1–4): 1 to 4 µM; EC50 (TRPA1): 0.11 µM; EC50 (Kv7.2/7.3): 0.2 µM; IC50 (BK): 0.28 µM
